Where two headings read alike, the source gives them in different places.

One experiment concerns the target cSrc (Homo sapiens, UniProt P12931). Briefly: Src peptide phosphorylation assay (Elisa or isotope based). The experiment is classed as biochemical. How it is done:
The peptide substrates used in Src and Lck assays were biotin-aminohexyl-EEIYGEF-NH2 (Src) and biotin-aminohexyl-[…]-NH2 (Lck). The src and Ick proteins were purified to homogeneity from a baculovirus expression system and preactivated before adding to assay mixtures. The maximum activation was achieved by incubating concentrated enzyme (10-30 mM) on ice for 40 min in the presence of 1 mM ATP and 10 mM MgCl2 in 100 mM HEPES, pH 7.5. The activated enzyme was diluted to 2 nM into a 50-mL reaction mixture containing 100 mM HEPES, pH 7.5. 5 mM ATP, 10 mM MgCl2, 2 mM peptide, 0.05 mg/mL BSA, and an inhibitor at varying concentrations and with or without 8 mCi/mL [γ-^33P]ATP dependent upon the method of analysis for the extent of reaction. The controls were reactions in the presence (negative controls) or absence (positive controls) of 50 mM EDTA. Reactions were allowed to proceed for 30 min at room temperature and quenched with addition of EDTA to 50 mM in 220 mL. The extent of reactions was analyzed in one of the two ways: an Elisa-based and a radioactive isotope-based. The quenched samples (200 mL) were transferred to a neutravidin coated plate (Perice) and incubated at room temperature for 40 min to allow biotinylated peptide to bind to neutravidin. The unbound peptide and the rest of the solution was washed away using a plate washer. In the Elisa format, a 200 mL HRP-PY20 anti phosphotyrosine antibody conjugate solution was added. After incubation for about 30 min, the plated was washed to remove unbound antibody-HRP conjugate. An Elisa substrate, K-blue (Neogen), was added and the Elisa reaction quenched with Red-stop (Neogen) after 15 min. The plate was read at A625 in a plate reader. In the isotope-based format, the reactions had been performed in the presence of [γ-^33P]ATP. 200 mL Scintiverce DB was added to each well of the plate with bound biotin-peptide. The plate was sealed and counted in a micro-b-counter (Wallac). IC50 values were obtained by fitting raw data to A625 (cpm)=Vmax*(1−([l]/(IC50+[l])))+b, where b is background.

Another experiment concerns the target CDK2 (Homo sapiens, UniProt P24941). Briefly: Cyclin dependent protein kinase substrate phosphorylation assay, CDK2. In kind it is biochemical.
The target in another experiment is VEGFR2 (Homo sapiens, UniProt P35968). Briefly: VEGFR-2 kinase domain peptide phosphorylation Elisa. The experiment is classed as biochemical. How it is done:
The peptide substrate used in the VEGFR-2 assay was biotin-aminohexyl-[…]-NH2. The kinase domain of the enzyme was purified to homogeneity from a baculovirus expression system. The enzyme was preactivated on ice for 15 min in the presence of 100 μM ATP and 20 mM MgCl2, and stored at −80° C. until needed for assay. The activated enzyme was diluted to 0.4 nM into a 60 μl reaction containing 100 mM HEPES, pH 7.5, 5 μM ATP, 10 mM MgCl2, 5 μM peptide, 0.1 mM DTT, 0.05 mg/ml BSA, and an inhibitor at varying concentrations. The controls were reactions in the presence (negative controls) or absence (positive controls) of 50 mM EDTA. Reactions were incubated for 30 min at room temperature, and then quenched by the addition of EDTA to 60 mM in 210 μl. The quenched samples (190 μl) were transferred to a neutravidin-coated plate (Pierce) and incubated at room temperature for 40 min to allow biotinylated peptide to bind to the neutravidin. The unbound components of the reaction were removed by washing with a plate washer, then 200 μl HRP-PY20 anti-phosphotyrosine antibody conjugate was added to each well. After incubation for 40 min, the plate was washed to remove any unbound antibody. A HRP substrate, K-blue (Neogen) was added and the reaction was quenched with Red Stop (Neogen) after 20 min. The absorbance of the wells was read at A650 in a plate reader. IC50 values were obtained by fitting raw data to A650=Vmax*(1−[l]/IC50+[l])))+b, where b is background.

For experiment [1], the system named is MES/SA ovarian carcinoma cells. Briefly: FACS assay (cell death by flow cytometry), MES/SA. In kind it is cell-based. Conditions: Homo sapiens, MES-SA, 72 h, read-out: FACS MES/SA IC50. How it is done:
(§1) These assays allow determination of both cell death and changes in cell cycle profile in cells following treatment of the compound. The assay is performend as follows:
(§2) 1. Cells are incubated in DMEM to which 10% FCS has been added in a humidified incubator at 37° C. and 5% by volume of CO2 in air. The cells are innoculated in 6-well plates at a density of 0.5-5×10^5 cells per well.
(§3) 2. The test compound is added in serial dilutions 24-36 h after plating in 0.5% DMSO. The plates are then incubated a further 72 h in the presence of the compound. During this time, cells in control cultures undergo at least three cell divisions.
(§4) 3. After incubation, the media is collected and cells are harvested by trypsinization. The cells and media are pooled and pelleted by centrifugation.
(§5) 4. The cell pellet is fixed in a final volume of 3 mL of 50% ice cold MeOH and incubated for a minimum of 30 min at −20° C.
(§6) 5. The cells are pelleted by centrifugation and resuspended in 0.5 mL PBS containing 1%FCS, […] Propidium Iodide (PI) and 5 mg/mL RNase A and incubated 30 min at 37° C. in the dark.
(§7) 6. The samples are analysed by flow cytometry using the relative incorporation of PI as a measure of DNA content of each cell. The % Dead cells is recorded as % of events with less than 2N DNA.
(§8) HDF are normal diploid fibroblast cells. RKO are colon adenocarcinoma cells and MES/SA are […].
(In flow cytometry, cells or beads pass a laser one at a time.)

Experiment [2] has as its system HDF normal diploid fibroblast cells. Briefly: FACS assay (cell death by flow cytometry), HDF. In kind it is cell-based, human. Conditions: Homo sapiens, Fibroblast, 72 h, read-out: FACS HDF IC50. How it is done:
as §1, §2, §3, §4, §5, §6, §7, §8

Sequence of cSrc (P12931 whole entry, species assumed): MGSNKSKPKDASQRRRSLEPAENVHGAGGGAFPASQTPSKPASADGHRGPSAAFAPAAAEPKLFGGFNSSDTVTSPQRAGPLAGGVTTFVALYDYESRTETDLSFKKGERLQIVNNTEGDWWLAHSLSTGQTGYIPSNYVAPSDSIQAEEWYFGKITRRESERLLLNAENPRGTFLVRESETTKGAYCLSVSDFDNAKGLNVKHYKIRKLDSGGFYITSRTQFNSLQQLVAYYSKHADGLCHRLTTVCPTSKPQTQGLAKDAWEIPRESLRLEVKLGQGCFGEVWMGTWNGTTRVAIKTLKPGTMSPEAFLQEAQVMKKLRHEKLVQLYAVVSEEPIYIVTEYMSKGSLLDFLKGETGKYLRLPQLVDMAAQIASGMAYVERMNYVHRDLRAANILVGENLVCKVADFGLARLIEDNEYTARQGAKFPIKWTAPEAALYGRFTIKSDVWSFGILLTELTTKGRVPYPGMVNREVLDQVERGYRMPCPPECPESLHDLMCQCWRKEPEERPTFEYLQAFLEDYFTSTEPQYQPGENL
Sequence of VEGFR2 (P35968 834-1162 limits assumed, species assumed): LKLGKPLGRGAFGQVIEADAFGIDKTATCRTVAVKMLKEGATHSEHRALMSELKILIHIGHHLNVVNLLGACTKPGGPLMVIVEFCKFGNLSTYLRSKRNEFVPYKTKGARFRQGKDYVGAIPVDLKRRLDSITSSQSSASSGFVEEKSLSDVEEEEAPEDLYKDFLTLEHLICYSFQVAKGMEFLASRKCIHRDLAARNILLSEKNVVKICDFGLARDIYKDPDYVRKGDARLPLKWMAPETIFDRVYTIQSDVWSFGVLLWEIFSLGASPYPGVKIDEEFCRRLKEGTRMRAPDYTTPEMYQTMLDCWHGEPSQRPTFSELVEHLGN
Experimental for CDK2: CDK1 and CDK2 were both expressed utilizing a baculovirus expression system and were partially purified to comprise 20-80% of total protein, with no detectable competing reactions present. […] Reactions were terminated with 0.2-2 volumes of either 20% acetic acid or 50-100 mM EDTA buffered to pH 7 (substrate consumption<20%). The buffer employed in enzyme assays was either 30 mM HEPES 7.4 containing 0.15 M NaCl and 5% DMSO, the buffer 50 mM MOPS 7.0 containing 0.15 M NaCl and 5% DMSO, or the buffer 100 mM HEPES pH 7.5 containing 0.1 mg /mL BSA and 5% DMSO. Inhibitors were diluted in 100% DMSO prior to addition into the assay. Detection of peptide phosphorylation was accomplished by scintillation counting following either collection of peptide onto phosphocellulose filters (for reactions stopped with acetic acid), collection of peptide in wells of 96 well plates coated with Streptavidin (Pierce) (reactions were stopped with EDTA), or addition of Avidin coated Scintillant impregnated beads (Scintillation Proximity Assays from Amersham, reactions were stopped with EDTA).

As to `CS(=O)(=O)Cc1ccc(NC=C2C(=O)Nc3ccc4ncsc4c32)cc1` [Example 76, 8-(4-Methylsulfonylmethyl-phenylamino-methylene)-6,8-dihydro-1-thia-3,6-diaza-as-indacen-7-one], the IC50 against cSrc was above 100 nM; against CDK2, 11 to 50 nM; against VEGFR2, above 100 nM; in experiment [1] (50% cell death), 1100 to 5000 nM.

Turning to `O=C1Nc2ccc3ncsc3c2C1=CNc1ccc(S(=O)(=O)Nc2ccccn2)cc1` [Example 72, 4-[(7-Oxo-6,7-dihydro-1-thia-3,6-diaza-as-indacen-8-ylidenemethyl)-amino]-N-pyridin-2-yl-benzenesulfonamide], the IC50 against cSrc is above 100 nM; against VEGFR2 it was 51 to 100 nM; in experiment [2] it was above 5000 nM; in experiment [1], above 5000 nM.

On to `CNS(=O)(=O)Cc1ccc(NN=C2C(=O)Nc3ccc4ncccc4c32)cc1` [Example 68, N-Methyl-C-{4-[N′-(2-oxo-2,3-dihydro-pyrrolo[3,2-f]quinolin-1-ylidene)-hydrazino]-phenyl}-methanesulfonamide], for which the IC50 on CDK2 fell in the range of 1 to 10 nM.

As for `CC(C)(CO)CNS(=O)(=O)c1ccc(NC=C2C(=O)Nc3ccc4ncsc4c32)cc1` [Example 77, N-(3-Hydroxy-2,2-dimethyl-propyl)-4-[(7-oxo-6,7-dihydro-1-thia-3,6-diaza-as-indacen-8-ylidenemethyl)-amino]-benzenesulfonamide], in experiment [1] (50% cell death), the IC50 lay in the range of 600 to 1000 nM.

For `CNS(=O)(=O)Cc1ccc(NN=C2C(=O)Nc3cc(C)c(O)c(C)c32)cc1` [Example 99], the results for the IC50 (against cSrc; at VEGFR2; in experiment [1] (50% cell death)) were above 100 nM, above 100 nM and above 5000 nM, respectively.

Source of the values: patent US6541503B2, “Substituted oxindole derivatives as protein tyrosine kinase and as protein serine/threonine kinase inhibitors” (SmithKline Beecham Corporation, priority 1997, dated 2003).
